Assays:
Format in all cases: cell-based
Staphylococcus aureus = assay: Reduction of azo substrates over 24 hours at 35° C., microtitration plate (Example 1); design: key to RED (substrate reduced or not): RED indicates whether the substrate is reduced (Y) or not (N); RED indicates whether the substrate is reduced (Y) or not (N); key to Co (growth, absorbance at 660 nm) / Decol (substrate decolourized, decrease in absorbance) / Fluo (fluorescence multiplied by 2 relative to substrate-free control): The symbol “+” means good growth/decolourization/significant increase in fluorescence; The symbol “+/−” means difficult growth; The symbol “−” means that there is no growth/decolourization/significant increase in fluorescence; conditions: S. aureus, substrate 35 mg/l
How it was run: (§1)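 Each species is represented by a single strain inoculated at 0.5 McFarland into Trypcase soya broth with substrate at 35 mg/l. Plates are read continuously at 35° C. over 24 hours. A substrate counts as reduced when absorbance falls or fluorescence doubles relative to a substrate-free control.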

Pseudomonas aeruginosa = assay: as above; design: key to RED (substrate reduced or not): RED indicates whether the substrate is reduced (Y) or not (N); RED indicates whether the substrate is reduced (Y) or not (N); key to Co (growth, absorbance at 660 nm) / Decol (substrate decolourized, decrease in absorbance) / Fluo (fluorescence multiplied by 2 relative to substrate-free control): The symbol “+” means good growth/decolourization/significant increase in fluorescence; The symbol “+/−” means difficult growth; The symbol “−” means that there is no growth/decolourization/significant increase in fluorescence; conditions: P. aeruginosa, substrate 35 mg/l
How it was run: as §1

Cronobacter muytjensii = assay: as above; design: key to RED (substrate reduced or not): RED indicates whether the substrate is reduced (Y) or not (N); RED indicates whether the substrate is reduced (Y) or not (N); key to Co (growth, absorbance at 660 nm) / Decol (substrate decolourized, decrease in absorbance) / Fluo (fluorescence multiplied by 2 relative to substrate-free control): The symbol “+” means good growth/decolourization/significant increase in fluorescence; The symbol “+/−” means difficult growth; The symbol “−” means that there is no growth/decolourization/significant increase in fluorescence; conditions: E. muytjensii, substrate 35 mg/l
How it was run: as §1

[1] = system: 10 strains representing 10 species of microorganisms; assay: Reduction of azo substrates, whole panel of Example 1; conditions: substrate 35 mg/l, 35° C., 24 hours
Description: Reduction of the “azo” function of the substrates listed in Table I by the species listed in Table II, each species being represented by a strain, is tested in a microtitration plate.
The reaction medium consists of: • Trypcase soya broth • Substrate 35 mg/l • 0.5 MacFarland inoculum
The reduction of the substrate and the growth of the microorganisms are monitored using an Infinite® M200 Tecan microplate reader at 35° C. over 24 hours.
The growth is monitored by the absorbance at 660 nm and the reduction of the substrates by absorbance and fluorescence at the specific wavelengths indicated in Table III.
The substrate is considered as reduced by the microorganisms when the substrate is decolourized (monitored by the decrease in absorbance) (Decol) and/or when the fluorescence of the substrate is multiplied by 2 relative to the base fluorescence of a substrate-free control (Fluo). The growth is indicated by Co. The symbol “+” means good growth/decolourization/significant increase in fluorescence. The symbol “+/−” means difficult growth. The symbol “−” means that there is no growth/decolourization/significant increase in fluorescence. RED indicates whether the substrate is reduced (Y) or not (N).

[2] = system: 45 strains representing 25 species of microorganisms; assay: Reduction of 3 azo substrates, whole panel of Example 2; conditions: substrate 35 mg/l, 35° C., 24 hours
Description: (§2) The reduction of the “azo” function of the substrates listed in Table V by the 25 species listed in Table VI, each being represented by one or two strains, is tested in a microtitration plate. The reaction medium consists of: • Trypcase soya broth • Substrate 35 mg/l • 0.5 MacFarland inoculum The reduction of the substrate and the growth of the microorganisms are monitored using an Infinite® M200 Tecan microplate reader at 35° C. over 24 hours. The growth is monitored by the absorbance at 660 nm, and the reduction of the substrates by absorbance and fluorescence at the wavelengths indicated in Table III above. The substrate is considered as reduced by the microorganisms when the fluorescence is multiplied by 2 relative to the base fluorescence of the reaction medium.

Streptococcus pyogenes = assay: Reduction of 3 azo substrates over 24 hours at 35° C. (Example 2); design: key: The strains that reduce the substrate are marked with a “+”; the strains that do not reduce the substrate are marked with a “−”; conditions: substrate 35 mg/l
Description: as §2

[3] = system: Staphylococcus haemolyticus; assay: as above; design: key: The strains that reduce the substrate are marked with a “+”; the strains that do not reduce the substrate are marked with a “−”; conditions: substrate 35 mg/l
Description: as §2

Saccharomyces cerevisiae = assay: as above; design: key: The strains that reduce the substrate are marked with a “+”; the strains that do not reduce the substrate are marked with a “−”; conditions: substrate 35 mg/l
Description: as §2

Staphylococcus hominis = assay: as above; design: key: The strains that reduce the substrate are marked with a “+”; the strains that do not reduce the substrate are marked with a “−”; conditions: substrate 35 mg/l
Description: as §2

Citrobacter koseri = assay: as above; design: key: The strains that reduce the substrate are marked with a “+”; the strains that do not reduce the substrate are marked with a “−”; conditions: substrate 35 mg/l
Description: as §2

O=C(O)c1cc(/N=N/c2ccc(-c3nc4ccccc4s3)cc2)ccc1O [BF45, 2-Phenyl-benzothiazole-4′-azo-4″- hydroxybenzene-3″-carboxylic acid]
Co (growth, absorbance at 660 nm) (Staphylococcus aureus): +
Decol (substrate decolourized, decrease in absorbance) (Staphylococcus aureus): +
Fluo (fluorescence multiplied by 2 relative to substrate-free control) (Staphylococcus aureus): +
RED (substrate reduced or not) (Staphylococcus aureus): Y
Co (growth, absorbance at 660 nm) (Pseudomonas aeruginosa): +
Decol (substrate decolourized, decrease in absorbance) (Pseudomonas aeruginosa): −
Fluo (fluorescence multiplied by 2 relative to substrate-free control) (Pseudomonas aeruginosa): −
RED (substrate reduced or not) (Pseudomonas aeruginosa): N
Co (growth, absorbance at 660 nm) (Cronobacter muytjensii): +
Decol (substrate decolourized, decrease in absorbance) (Cronobacter muytjensii): −
Fluo (fluorescence multiplied by 2 relative to substrate-free control) (Cronobacter muytjensii): −
RED (substrate reduced or not) (Cronobacter muytjensii): N

CN(C)c1ccc(N=Nc2ccc(S(=O)(=O)[O-])cc2)cc1.[Na+] [Methyl orange]
reduction by the microorganisms tested (Table IV) [1]: reduced only by E. faecalis
Co (growth, absorbance at 660 nm) (Staphylococcus aureus): +
Decol (substrate decolourized, decrease in absorbance) (Staphylococcus aureus): −
Fluo (fluorescence multiplied by 2 relative to substrate-free control) (Staphylococcus aureus): −
RED (substrate reduced or not) (Staphylococcus aureus): N
Co (growth, absorbance at 660 nm) (Pseudomonas aeruginosa): +
Decol (substrate decolourized, decrease in absorbance) (Pseudomonas aeruginosa): −
Fluo (fluorescence multiplied by 2 relative to substrate-free control) (Pseudomonas aeruginosa): −
RED (substrate reduced or not) (Pseudomonas aeruginosa): N
Co (growth, absorbance at 660 nm) (Cronobacter muytjensii): +
Decol (substrate decolourized, decrease in absorbance) (Cronobacter muytjensii): −
Fluo (fluorescence multiplied by 2 relative to substrate-free control) (Cronobacter muytjensii): −
RED (substrate reduced or not) (Cronobacter muytjensii): N

CN(C)c1ccc(/N=N/c2ccccc2C(=O)O)cc1 [Methyl red]
reduction by the microorganisms tested (Table IV) [1]: can be reduced by all the microorganisms tested
Co (growth, absorbance at 660 nm) (Staphylococcus aureus): +
Decol (substrate decolourized, decrease in absorbance) (Staphylococcus aureus): +
Fluo (fluorescence multiplied by 2 relative to substrate-free control) (Staphylococcus aureus): +
RED (substrate reduced or not) (Staphylococcus aureus): Y
Co (growth, absorbance at 660 nm) (Pseudomonas aeruginosa): +
Decol (substrate decolourized, decrease in absorbance) (Pseudomonas aeruginosa): +/−
Fluo (fluorescence multiplied by 2 relative to substrate-free control) (Pseudomonas aeruginosa): +
RED (substrate reduced or not) (Pseudomonas aeruginosa): Y
Co (growth, absorbance at 660 nm) (Cronobacter muytjensii): +
Decol (substrate decolourized, decrease in absorbance) (Cronobacter muytjensii): +
Fluo (fluorescence multiplied by 2 relative to substrate-free control) (Cronobacter muytjensii): +
RED (substrate reduced or not) (Cronobacter muytjensii): Y

O=S(=O)([O-])c1ccc(N=Nc2c(O)ccc3ccccc23)cc1.[Na+] [Orange II]
reduction by the species tested (Table VII) [2]: reduced mainly by E. faecalis
reduction of the substrate by the strain (fluorescence multiplied by 2) (Streptococcus pyogenes): −
reduction of the substrate by the strain (fluorescence multiplied by 2) [3]: −
reduction of the substrate by the strain (fluorescence multiplied by 2) (Saccharomyces cerevisiae): −
reduction of the substrate by the strain (fluorescence multiplied by 2) (Staphylococcus hominis): −
reduction of the substrate by the strain (fluorescence multiplied by 2) (Citrobacter koseri): −
Co (growth, absorbance at 660 nm) (Staphylococcus aureus): +
Decol (substrate decolourized, decrease in absorbance) (Staphylococcus aureus): −
Fluo (fluorescence multiplied by 2 relative to substrate-free control) (Staphylococcus aureus): −
RED (substrate reduced or not) (Staphylococcus aureus): N
Co (growth, absorbance at 660 nm) (Pseudomonas aeruginosa): +
Decol (substrate decolourized, decrease in absorbance) (Pseudomonas aeruginosa): −
Fluo (fluorescence multiplied by 2 relative to substrate-free control) (Pseudomonas aeruginosa): −
RED (substrate reduced or not) (Pseudomonas aeruginosa): N
Co (growth, absorbance at 660 nm) (Cronobacter muytjensii): +
Decol (substrate decolourized, decrease in absorbance) (Cronobacter muytjensii): −
Fluo (fluorescence multiplied by 2 relative to substrate-free control) (Cronobacter muytjensii): −
RED (substrate reduced or not) (Cronobacter muytjensii): N

O=C([O-])C1=NN(c2ccc(S(=O)(=O)[O-])cc2)C(=O)C1/N=N/c1ccc(S(=O)(=O)[O-])cc1.[Na+].[Na+].[Na+] (centres unmarked) [Tartrazine]
reduction by the species tested (Table VII) [2]: reduced mainly by E. faecalis
reduction of the substrate by the strain (fluorescence multiplied by 2) (Streptococcus pyogenes): −
reduction of the substrate by the strain (fluorescence multiplied by 2) [3]: −
reduction of the substrate by the strain (fluorescence multiplied by 2) (Saccharomyces cerevisiae): −
reduction of the substrate by the strain (fluorescence multiplied by 2) (Staphylococcus hominis): −
reduction of the substrate by the strain (fluorescence multiplied by 2) (Citrobacter koseri): −
Co (growth, absorbance at 660 nm) (Staphylococcus aureus): +
Decol (substrate decolourized, decrease in absorbance) (Staphylococcus aureus): −
Fluo (fluorescence multiplied by 2 relative to substrate-free control) (Staphylococcus aureus): −
RED (substrate reduced or not) (Staphylococcus aureus): N
Co (growth, absorbance at 660 nm) (Pseudomonas aeruginosa): +
Decol (substrate decolourized, decrease in absorbance) (Pseudomonas aeruginosa): −
Fluo (fluorescence multiplied by 2 relative to substrate-free control) (Pseudomonas aeruginosa): −
RED (substrate reduced or not) (Pseudomonas aeruginosa): N
Co (growth, absorbance at 660 nm) (Cronobacter muytjensii): +
Decol (substrate decolourized, decrease in absorbance) (Cronobacter muytjensii): −
Fluo (fluorescence multiplied by 2 relative to substrate-free control) (Cronobacter muytjensii): −
RED (substrate reduced or not) (Cronobacter muytjensii): N

Reference: patent US20150125889A1, “IN VITRO DETECTION OF MICROORGANISMS WITH AZOREDUCTASE ACTIVITY” (BIOMÉRIEUX, priority 2012, published 2015)
